What was measured:
[1] = tested on: NCI-H460, human non-small cell lung cancer cells; experiment: Cell-MTS cellular proliferation assay, NCI-H460; assay type: cell-based; conditions: Homo sapiens, 168 hr incubation
Procedure, shortened: (§1)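 Cells seeded to reach ~90% confluence at 7 days (Raji 15,000, HL-60 5,000, NCI-H460 3,000 per well); 11-point compound dilution, 100 µM to 2.0 nM final, added 24 h after plating. Exposure 168 hr at 37 °C, 5% CO2; MTS read at OD490. IC50 from background-subtracted OD490 normalized to DMSO controls.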

[2] = tested on: HL-60, human proleukemia cells; experiment: Cell-MTS cellular proliferation assay, HL-60; assay type: cell-based; conditions: Homo sapiens, HL-60 cells, 168 hr incubation
Procedure, shortened: as §1

[3] = tested on: Raji, human Burkitts lymphoma cells; experiment: Cell-MTS cellular proliferation assay, Raji; assay type: cell-based; conditions: Homo sapiens, 168 hr incubation
Procedure, shortened: as §1

BRD4(BD1) = BRD4(BD1) (Homo sapiens (Human), UniProt O60885); experiment: In vitro enzyme inhibition assay (BRD4 AlphaScreen, H4-tetraacetyl peptide); assay type: binding; conditions: BRD4(BD1) 2 nM, peptide 15 nM
Procedure, shortened: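 His-tagged BRD4(BD1), 2 nM, with 15 nM biotinylated H4K5/8/12/16(Ac) peptide in HEPES pH 7.3 buffer, 0.4% DMSO, 20 min RT with compound. Streptavidin donor and Ni-chelate acceptor beads (5 μg/mL) then equilibrated 2 h. AlphaScreen signal; IC50 by four-parameter fit.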

Row | IC50 [1] | IC50 [2] | IC50 [3] | IC50 (BRD4(BD1)) | Compound
1 | > 5 µM | ≤ 0.5 µM | ≤ 0.5 µM | ≤ 0.5 µM | Cc1cc(-c2cc(NS(C)(=O)=O)c3nc(C)n(CC4CC4)c3c2)cn(C)c1=O [Example 39, N-[1-(cyclopropylmethyl)-6-(1,5-dimethyl-6-oxopyridin-3-yl)-2-methylbenzimidazol-4-yl]methanesulfonamide]
2 | ≤ 0.5 µM | ≤ 0.5 µM | ≤ 0.5 µM | ≤ 0.5 µM | CCS(=O)(=O)Nc1cc(-c2cc(C)c(=O)n(C)c2)cc2c1cnn2Cc1ccc(F)cc1 [Example 43, N-[6-(1,5-dimethyl-6-oxopyridin-3-yl)-1-[(4-fluorophenyl)methyl]indazol-4-yl]ethanesulfonamide]
3 | > 5 µM | ≤ 0.5 µM | ≤ 0.5 µM | ≤ 0.5 µM | Cc1cc(-c2cc(NS(C)(=O)=O)ccc2Oc2ccc(F)cc2F)c2n(c1=O)CC(C)(C)C2 [Example 88, N-[4-(2,4-difluorophenoxy)-3-(2,2,6-trimethyl-5-oxo-1,3-dihydroindolizin-8-yl)phenyl]methanesulfonamide]
4 | 0.5 to 5 µM | 0.5 to 5 µM | 0.5 to 5 µM | 0.5 to 5 µM | CN1Cc2ccc(-c3cn(C)c(=O)c4ccccc34)cc2S1(=O)=O [Example 1, 2-methyl-4-(2-methyl-1,1-dioxo-3H-1,2-benzthiazol-6-yl)isoquinolin-1-one]
5 | > 5 µM | ≤ 0.5 µM | ≤ 0.5 µM | ≤ 0.5 µM | CCS(=O)(=O)Nc1cc(-c2cc(OC)c(=O)n(C)c2)c2oc(C3CCCC3)nc2c1 [Example 57, N-[2-cyclopentyl-7-(5-methoxy-1-methyl-6-oxopyridin-3-yl)-1,3-benzoxazol-5-yl]ethanesulfonamide]
6 | 0.5 to 5 µM | ≤ 0.5 µM | ≤ 0.5 µM | ≤ 0.5 µM | Cc1cc(-c2cc(NS(C)(=O)=O)c3nc(C)n(Cc4ccc(F)cc4)c3c2)cn(C)c1=O [Example 37, N-[6-(1,5-dimethyl-6-oxopyridin-3-yl)-1-[(4-fluorophenyl)methyl]-2-methylbenzimidazol-4-yl]methanesulfonamide]
7 | > 5 µM | ≤ 0.5 µM | ≤ 0.5 µM | ≤ 0.5 µM | Cc1cc(-c2cc(NS(C)(=O)=O)c3oc(=O)n(Cc4ccc(F)cc4)c3c2)cn(C)c1=O [Example 102, N-[5-(1,5-dimethyl-6-oxopyridin-3-yl)-3-[(4-fluorophenyl)methyl]-2-oxo-1,3-benzoxazol-7-yl]methanesulfonamide]
8 | 0.5 to 5 µM | ≤ 0.5 µM | 0.5 to 5 µM | ≤ 0.5 µM | CCN1Cc2cc(OCC3CC3)c(-c3cc(C)c(=O)n(C)c3)cc2S1(=O)=O [Example 8, 5-[5-(cyclopropylmethoxy)-2-ethyl-1,1-dioxo-3H-1,2-benzothiazol-6-yl]-1,3-dimethylpyridin-2-one]
9 | 0.5 to 5 µM | ≤ 0.5 µM | ≤ 0.5 µM | ≤ 0.5 µM | CCS(=O)(=O)c1nn(C)c2cc(OCC3CC3)c(-c3cn(C)c(=O)c4ccccc34)cc12 [Example 30, 4-[6-(cyclopropylmethoxy)-3-ethylsulfonyl-1-methylindazol-5-yl]-2-methylisoquinolin-1-one]
10 | 0.5 to 5 µM | ≤ 0.5 µM | ≤ 0.5 µM | ≤ 0.5 µM | Cc1cc(-c2cc(NS(C)(=O)=O)c3ncn(Cc4ccccc4)c3c2)cn(C)c1=O [Example 31, N-[1-benzyl-6-(1,5-dimethyl-6-oxopyridin-3-yl)benzimidazol-4-yl]methanesulfonamide]
11 | > 5 µM | ≤ 0.5 µM | ≤ 0.5 µM | ≤ 0.5 µM | COc1cc(-c2cc3c(S(C)(=O)=O)cccc3n2CCC2CC2)cn(C)c1=O [Example 91, 5-[1-(2-cyclopropylethyl)-4-methylsulfonylindol-2-yl]-3-methoxy-1-methylpyridin-2-one]

Source: US10807982B2, “Bromodomain inhibitors” (CELGENE QUANTICEL RESEARCH, INC., priority 2015, dated 2020)
